Experimental data from publication PMC3256188, “Novel Nonphosphorylated Peptides with Conserved Sequences Selectively Bind to Grb7 SH2 Domain with Affinity Comparable to Its Phosphorylated Ligand” (PLoS ONE, 2012).
“Also recorded” adds a separate entry of the source.

Legend:
[1] = target: T1, GFP-Grb7 SH2 domain and 41-mRLUC-3×Flag complex (Homo sapiens, UniProt Q14451); assay: Competition immunoprecipitation, GFP-Grb7 SH2 domain and 41-mRLUC-3×Flag complex; format: binding
T1 construct: expressed in transfected cells; host or cells: HEK293T
T1 sequence (Q14451 425-532, one chain of several): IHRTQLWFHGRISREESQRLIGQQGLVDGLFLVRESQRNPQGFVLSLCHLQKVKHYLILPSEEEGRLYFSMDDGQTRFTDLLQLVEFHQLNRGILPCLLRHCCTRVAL
Source text: To see whether the nonphosphorylated peptide could effectively compete with phosphorylated ligand for binding to the Grb7 SH2 domain, the phosphorylated ligand pY (1180) (DEEYEpY(1180)MNRRR), which was previously shown to interact with the Grb7 SH2 domain [6], and the nonphosphorylated 41-A ligand ([…]), which contains the first twenty-two amino acid-motif close to the N-terminus of peptide 41, were examine for their abilities to interfere with the GFP-Grb7 SH2 domain and 41-mRLUC-3×Flag complex using immunoprecipitation with anti-GFP antibody.
The phosphorylated ligand pY (1180) (DEEYEpY(1180)MNRRR) from the ErbB3 and the nonphosphorylated peptide 41-A ([…] RV) from nonphosphorylated peptide 41 were synthesized by the China Peptides Co., Ltd. The HPLC purification analysis and MS quality analysis reports were obtained.
HEK293T cells were washed 5 times with ice-cold PBS buffer and scraped off the plates into cell lysis buffer (1% Nonidet P-40, 0.02 M TRIS (pH 7.5), 0.15 M sodium chloride, 0.001 M EDTA, 0.5% sodium deoxycholate, 0.1% SDS and 0.001 M PMSF). Lysates were incubated on ice for 5 minutes, vortexed 2 times for 30 seconds each and centrifuged at 12,000 rpm for 15 minutes at 4°C. After centrifuging twice, the supernatant was incubated with anti-Flag antibody (1∶100, M20008M, Abmart, China) for 6–8 h at 4°C. Protein G agarose (40 µL) was added into 1 mL of the above mixture and coupled to the anti-Flag antibody for 3 h at 4°C. The immunoprecipitates were washed 2–3 times with PBS buffer (PH 7.4), and the sediments were diluted with 5×SDS electrophoresis buffer and heated at 97°C for 10 minutes. The proteins were separated by SDS-PAGE and transferred to PVDF membranes (IPVH00010, Millipore, USA). The membranes were incubated with anti-GFP antibody (1∶2000, P30010, Abmart, China) and goat anti-rabbit secondary antibody (1∶4000, M21002, Abmart, China) to identify target proteins. For the competition analyses, the immunoprecipitation complexes were mixed with anti-Flag antibody and different concentrations of the synthesized phosphorylated ligands or the nonphosphorylated ligands. The proteins were separated by SDS-PAGE, and the SH2 domain of Grb7 protein was analyzed using anti-GFP antibody. Western blot analysis was carried out using the Image J [37], the IC50 values were calculated by regression analyses using SPSS 17.0.

Grb7 SH2 domain [2] = target: Grb7 SH2 domain; set-up: method as in earlier work; details: binding to Grb7 SH2 domain; calorimetric (title of ref 27); read-out: dissociation constant (Kd); cited from earlier work
Source text: Many drugs are designed to target the SH2 domain of Grb7. […] This peptide also serves as a model for chemical drug de ...

Grb7 SH2 domain [3] = assay: Co-immunoprecipitation from transfected HEK293T cells; format: binding; details: HEK293T co-transfected with peptide-mRLUC-3×Flag and EGFP-Grb7 SH2, 36 h; anti-Flag IP, anti-GFP blot
Source text: In the co-immunoprecipitation assay, the mRLUC fragment was generated by PCR amplification. The inserted sequence of the Grb7 SH2 domain was as follows: N- […]-C. This sequence was inserted at the C terminus of the EGFP tag. The sequence of peptide 10 was as follows: N-[…]-C. The sequence of peptide 41 was as follows: N-[…]-C. The sequence of peptide 10CM was as follows: N-[…]-C. The nonphosphorylated peptide and the mRLUC fragment were inserted at the N-terminus of the Flag tag. The mRLUC fragment was fused with the nonphosphorylated peptide so that they could be easily identifiable. The empty vector containing the mRLUC fragment was used as the negative control.
(§1) HEK293T cells at 70%–80% confluency were given fresh DMEM (high glucose) culture medium and transfected with plasmids using the calcium phosphate method. Samples were collected at 36 h after transfection.
HEK293T cells were washed 5 times with ice-cold PBS buffer and scraped off the plates into cell lysis buffer (1% Nonidet P-40, 0.02 M TRIS (pH 7.5), 0.15 M sodium chloride, 0.001 M EDTA, 0.5% sodium deoxycholate, 0.1% SDS and 0.001 M PMSF). […] The proteins were separated by SDS-PAGE, and the SH2 domain of Grb7 protein was analyzed using anti-GFP antibody. Western blot analysis was carried out using the Image J [37], the IC50 values were calculated by regression analyses using SPSS 17.0.

[4] = system: EYFP-tagged Grb7 SH2 domain; assay: Bioluminescence Resonance Energy Transfer (BRET) in HEK293T cells; format: cell-based; details: 36 h after transfection, EYFP-Grb7 SH2 + mRLUC-tagged peptide, coelenterazine 5.9 µM, eighteen group ratios
Source text: For the BRET assay, the EYFP fragment was generated by PCR amplification. The ErbB3-mRLUC plasmid was constructed by the Beijing Sino Biological Inc. The SH2 domain of Grb7 was fused to the EYFP fragment, and the nonphosphorylated peptides 10 and 41 were fused to the mRLUC fragment. The Grb7 SH2 domain sequence was inserted at the C-terminus of the EYFP tag.
as §1
In BRET, the Renilla luciferase (mRLUC) is fused to the candidate protein, and the green fluorescent protein mutant (EYFP) is fused to the target protein. Interactions between the two fused proteins bring the luciferase and the green fluorescent protein into close proximity, which promotes resonance energy transfer from mRLUC to EYFP [38]. Then EYFP is […] at 530 nm, and the emission is used to determine the binding between the two interacting proteins. In this study, HEK293T cells were collected at 36 h after transfection, 100 µL of mixed cell suspension was added to the u-bottom 96-well microtiter plates (Corning, USA) before measurement. The measurement of bioluminescence, with rasters of 460/40 nm and 518/20 nm, was performed on Synergy4 Multi-Mode Microplates Readers (BioTek, USA). The BRET reaction was initiated by 5.9 µM coelenterazine (Promega, USA). Data were analyzed by one-factor analysis of variance using SPSS 17.0.

[5] = system: SK-BR-3 breast cancer cells; assay: MTS cell proliferation assay; format: cell-based; details: double-factor variance analysis, n = 10, p<0.001, Figure 4B
Description: For the cell proliferation assay, the anti-Grb7 antibody (N-20, Santa Cruz Biotechnology, USA) and the anti-Flag antibody (M20008M, Abmart, China) were used for the western blot, and MTS (Promega, USA) was used for the analysis of cell proliferation.
The MTS cell proliferation assay was performed to analyze the proliferation of SK-BR-3 breast cancer cells (Cell culture center of PUMC, China) according to the manufacturer's instructions (Promega, USA). SK-BR-3 cells at 70%–80% confluency were transiently transfected respectively with plasmids of 41-mRLUC-3×Flag or mRLUC-3×Flag and Mega Tran 1.0 (OriGene, USA). Beginning from 12 h after transfection, 400 µg/mL G418 (11811-023, Invitrogen, USA) was used to select for the transfected cells. The u-bottom 96-well microtiter plates (Corning, USA) were seeded with approximately 7.50×10^3 cells per well at 18 h after transfection. […] The absorbance at 492 nm of transfected cells and control DMEM medium was measured separately at 18 h, 24 h, 36 h, 48 h and 60 h after transfection on Synergy4 Multi-Mode Microplates Readers (BioTek, USA). The absorbance was adjusted by differences in the absorbance between cell culture medium and control medium without seeded cells. The data were analyzed by double-factor variance analysis using SPSS 17.0.

Row | interference with binding of the Grb7 SH2 domain to peptide 41 ([1]; 0.0072 mM) | interference with binding of the Grb7 SH2 domain to peptide 41 ([1]; 0.036 mM) | interference with binding of the Grb7 SH2 domain to peptide 41 ([1]; 0.18 mM) | binding to the Grb7 SH2 domain in the absence of competitor ([1]; in the absence of peptide pY (1180) and peptide 41-A, Figure 3A) | Substance | disruptive effect on the Grb7 SH2 domain/peptide 41 interaction ([1]; Figure 3A, overall, concentration not given) | binding affinity to the Grb7 SH2 domain, comparison of 41-A and pY (1180) ([1]; in vitro competition, in words) | Kd (Grb7 SH2 domain [2]) [nM] | pull-down of the Grb7 SH2 domain (co-immunoprecipitation) (Grb7 SH2 domain [3]) | BRET luminescence ratio of 530/480 nm [4] | adjusted absorbance between transfected cell groups and between time points [5]
1 | did not significantly interfere | did not significantly interfere | nearly abolished | – | DEEYEpY(1180)MNRRR [pY (1180), phosphorylated ligand pY (1180) (DEEYEpY(1180)MNRRR) from the ErbB3, reference compound] | abolished the association between the Grb7 SH2 domain and nonphosphorylated peptide 41 | at least comparable binding affinities to the Grb7 SH2 domain | ~1150 | – | – | –
2 | – | – | – | could bind to the Grb7 SH2 domain | N-VGTWTTRGPWCPCVAVGIPTQPTTSSEPSPPSNPPWDPGRVLLGRIVWPGLLALGIPTHHQNDTYNSPHAHPNRDP-C [peptide 41, nonphosphorylated peptide with two twenty-two residue motifs, 41-A and 41-B] | – | – | – | pulled down the Grb7 SH2 domain; also recorded: co-immunoprecipitated | significantly stronger | Statistically significant differences existed in both of groups
